Experimental data from patent US20210116454A1, “METHODS FOR TREATING A HEMATOLOGICAL CANCER AND THE USE OF COMPANION BIOMARKERS FOR 2-(2,6-DIOXOPIPERIDIN-3-YL)-4-((2-FLUORO-4-((3-MORPHOLINOAZETIDIN-1-YL)METHYL)BENZYL)AMINO)ISOINDOLINE-1,3-DIONE” (CELGENE CORPORATION, priority 2019, published 2021).
Where two headings read alike, the source gives them in different places.

Key:
[1] = system: KARPAS-422-Cas9 and SU-DHL-4-Cas9 knock-out cells; assay: Flow cytometry-based cellular competition assay in substrate knock-out cells; type: cell-based; settings: 0.1, 1, 10 nM
From the text: Compound 1 induces autonomous cell killing activity in DLBCL cells in a cereblon-dependent manner. To investigate the consequence of loss of a single cereblon substrate, CRISPR/Cas9-mediated knockout of a cereblon substrate coupled with a flow cytometry-based cellular competition assay was utilized to assess relative cell fitness upon gene knock-out in six DLBCL cell lines: KARPAS-422, U-2932, RIVA, SU-DHL-16, HT, and SU-DHL-4 (FIG. 7, Panel A). To perform the flow cytometry-based competition assay, stable Cas9-expressing DLBCL cells were transduced with a control non-targeting sgRNA construct containing a GFP reporter (sgNT-1-GFP), or with a sgRNA construct targeting a gene of interest containing an RFP reporter (sgRNA-RFP). For targeted knock-out of each gene, two sgRNA sequences were used to knock-out Ikaros (sgIKZF1-1, sgIKZF1-2), Aiolos (sgIKZF3-1, sgIKZF3-2), and ZFP91 (sgZFP91-1, sgZFP91-3). For controls, two non-targeting sgRNAs (sgNT-1, sgNT-2), a sgRNA targeting a non-coding region of the genome (sgNC-1), and a sgRNA targeting an established essential gene ETF1 (sgETF1-1) were included. Following transduction with sgRNAs, cells were washed and mixed at a 1:1 ratio and the percentage of GFP^+ and RFP^+ cells was measured every three days for eighteen days (FIG. 7, panel B). […]

[2] = system: LPS system; assay: BioMAP LPS system (PBMCs and endothelial cells); type: cell-based, human; settings: 0.01, 0.1, 1, and 10 μM
Experimental: The activity of Compound 1 was profiled in a panel of human primary cell-based assays, modeling complex tissue and disease biology of organs (vasculature, immune system, skin, lung) and general tissue biology using the BioMAP System (DiscoveRx, Fremont, Calif.).
The BioMAP System consists of twelve primary human monoculture or co-culture systems in stimulated and non-stimulated control conditions (FIG. 4, panel A). When tested at 0.01, 0.1, 1, and 10 μM, Compound 1 mediated changes in key biomarker activities. Specifically, the profiles for Compound 1 reflected selective anti-inflammatory and immunomodulatory impact on monocyte (LPS) and T cell dependent B cell activation responses (BT). Treatment with Compound 1 led to a decrease in interleukin 8 (IL-8), interleukin 1a (IL-1a), secreted prostaglandin E2 (sPGE2), and secreted tumor necrosis factor alpha (sTNFα) in the LPS system, which consisted of peripheral blood mononuclear cells (PBMCs) and endothelial cells. Furthermore, secreted IgG (sIgG), secreted interleukin 17A (sIL-17A), secreted interleukin 17F (sIL-17F), and sTNFα decreased, whereas secreted interleukin 2 (sIL-2) and secreted interleukin 6 (sIL-6) increased, in the BT system, which was comprised of B cells and PBMCs.

[3] = target: T1, Aiolos (Homo sapiens, UniProt Q96SW2+Q9UKT9); assay: Enzyme fragment complementation (EFC) degradation assay, DF15 cells expressing ePL-tagged substrate; type: cell-based; settings: for Emax: DF15, DF15 ePL-Aiolos, remaining substrate; for DC50: DF15 ePL-Aiolos, read-out: Aiolos degradation EC50
T1 construct: expressed in transfected cells; host or cells: DF15 cells
T1 sequence (Q9UKT9 whole entry, the tested form may be a part): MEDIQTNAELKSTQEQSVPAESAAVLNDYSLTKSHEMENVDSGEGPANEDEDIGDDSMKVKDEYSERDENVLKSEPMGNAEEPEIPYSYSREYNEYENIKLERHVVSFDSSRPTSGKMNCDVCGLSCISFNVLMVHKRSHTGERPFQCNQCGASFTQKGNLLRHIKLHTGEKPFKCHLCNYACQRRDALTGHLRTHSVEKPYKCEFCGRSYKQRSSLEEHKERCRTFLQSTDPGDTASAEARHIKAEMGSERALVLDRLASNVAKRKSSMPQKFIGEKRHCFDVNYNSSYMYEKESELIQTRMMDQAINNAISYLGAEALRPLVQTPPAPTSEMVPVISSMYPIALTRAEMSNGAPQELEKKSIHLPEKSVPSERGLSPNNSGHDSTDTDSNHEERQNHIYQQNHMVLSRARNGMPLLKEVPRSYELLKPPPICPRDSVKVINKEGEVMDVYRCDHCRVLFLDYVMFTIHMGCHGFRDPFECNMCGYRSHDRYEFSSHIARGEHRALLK
T1 sequence (Q96SW2 whole entry, the tested form may be a part): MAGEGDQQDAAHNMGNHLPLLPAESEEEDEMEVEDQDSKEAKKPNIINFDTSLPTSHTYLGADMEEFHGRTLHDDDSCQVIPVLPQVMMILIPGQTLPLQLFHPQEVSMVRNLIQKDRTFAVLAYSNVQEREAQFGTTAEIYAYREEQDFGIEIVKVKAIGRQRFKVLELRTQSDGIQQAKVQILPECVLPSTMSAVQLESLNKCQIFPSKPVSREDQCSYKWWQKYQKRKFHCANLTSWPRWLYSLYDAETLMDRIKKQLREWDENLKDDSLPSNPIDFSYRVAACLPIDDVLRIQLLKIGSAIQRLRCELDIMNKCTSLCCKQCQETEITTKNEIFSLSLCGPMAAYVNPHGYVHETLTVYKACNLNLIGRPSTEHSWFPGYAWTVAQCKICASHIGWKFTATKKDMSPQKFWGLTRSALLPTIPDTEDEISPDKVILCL
T1 sequence (Q16531 whole entry partner, the tested form may be a part): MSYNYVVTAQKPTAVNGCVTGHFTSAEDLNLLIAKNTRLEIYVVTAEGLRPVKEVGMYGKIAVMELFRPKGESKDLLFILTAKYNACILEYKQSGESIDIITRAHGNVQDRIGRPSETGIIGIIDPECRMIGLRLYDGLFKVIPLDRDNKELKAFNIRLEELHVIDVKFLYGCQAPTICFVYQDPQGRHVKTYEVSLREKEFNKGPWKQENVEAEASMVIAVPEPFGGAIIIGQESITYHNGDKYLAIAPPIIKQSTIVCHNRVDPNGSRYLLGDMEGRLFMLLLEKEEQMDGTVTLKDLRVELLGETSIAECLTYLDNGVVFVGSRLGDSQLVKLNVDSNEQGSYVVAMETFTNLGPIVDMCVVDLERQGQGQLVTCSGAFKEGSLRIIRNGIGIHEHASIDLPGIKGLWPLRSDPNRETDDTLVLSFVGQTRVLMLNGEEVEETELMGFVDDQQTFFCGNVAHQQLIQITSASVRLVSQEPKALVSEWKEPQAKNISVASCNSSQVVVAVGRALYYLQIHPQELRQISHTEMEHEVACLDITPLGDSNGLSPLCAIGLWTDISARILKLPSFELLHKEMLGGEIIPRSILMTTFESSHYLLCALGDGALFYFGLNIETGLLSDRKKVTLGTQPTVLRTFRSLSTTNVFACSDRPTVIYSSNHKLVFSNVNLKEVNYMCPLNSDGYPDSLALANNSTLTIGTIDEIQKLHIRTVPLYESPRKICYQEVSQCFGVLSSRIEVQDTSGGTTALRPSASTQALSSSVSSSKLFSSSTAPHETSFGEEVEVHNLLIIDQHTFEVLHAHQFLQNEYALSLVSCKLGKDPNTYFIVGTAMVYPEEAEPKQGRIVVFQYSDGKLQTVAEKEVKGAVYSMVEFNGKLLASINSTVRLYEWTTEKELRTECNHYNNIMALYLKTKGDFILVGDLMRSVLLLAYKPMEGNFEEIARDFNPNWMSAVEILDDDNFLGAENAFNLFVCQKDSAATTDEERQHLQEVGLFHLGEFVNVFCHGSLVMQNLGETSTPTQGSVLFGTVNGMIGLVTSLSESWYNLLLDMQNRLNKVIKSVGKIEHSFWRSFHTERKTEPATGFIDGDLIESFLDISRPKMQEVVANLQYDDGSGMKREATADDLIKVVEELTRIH

[4] = system: PBMCs from four healthy donors; assay: Cytokine secretion by anti-CD3 stimulated PBMCs (MSD); type: cell-based
Experimental: Purified PBMCs from four healthy donors were plated on anti-CD3 antibody-coated plates to stimulate T cells and were subsequently treated with either DMSO (control) or Compound 1 at various concentrations for 3, 4, and 7 days. Secretion of cytokines was measured in supernatant fluid from PBMC cultures over time by using mesoscale (MSD) assays. Compound 1 induced IL-2 secretion at all concentrations tested.

[5] = system: exhausted T cells; assay: SEB-induced T-cell exhaustion restimulation assay, effector cytokine release (MSD); type: cell-based; settings: for EC50: T cell restimulation assay

With O=C1CC[C@H](N2C(=O)c3cccc(NCc4ccc(CN5CC(N6CCOCC6)C5)cc4F)c3C2=O)C(=O)N1 [Compound 1, (S)-2-(2,6-dioxopiperidin-3-yl)-4-((2-fluoro-4-((3-morpholinoazetidin-1-yl)methyl)benzyl)amino)isoindoline-1,3-dione] the “RFP+/GFP+ ratio relative to DMSO-treated control cells” value ([1]; sgIKZF1 and sgIKZF3 knock-out cells) was “dose-dependent decrease”, the “dose-dependent decrease in RFP+/GFP+ ratio” value ([1]; sgZFP91 cells) was “not observed” and the “IL-8, IL-1a, sPGE2, and sTNFα” value [2] was “decrease”. It also gave an Emax ([3]; 1 hour) of 60%, an Emax ([3]; 2 hours) of 16.5% and an Emax ([3]; 6 hours) of 6%. It also gave an Emax ([3]; 24 hours) of 7%, a DC50 ([3]; 1 hour) of 0.6 nM and a DC50 ([3]; 2 hours) of 0.5 nM. For the same compound, the DC50 ([3]; 6 hours) was 0.2 nM, the DC50 ([3]; 24 hours) was 0.2 nM and the “Interleukin-2 secretion by PBMCs” value ([4]; 0.1 to 100 nM, 3, 4, and 7 days) was “increased”. The “other monitored cytokines (TNFα, IFNγ, IL-4, IL-13, IL-10, and IL-6)” value ([4]; 3, 4, and 7 days) was “Transient or no effect”, the EC50 ([5]; read-out: EC50 for secreted GM-CSF levels) was 6 nM and the EC50 ([5]; read-out: EC50 for secreted IFNγ) was 10 nM. For the same compound, the EC50 ([5]; read-out: EC50 for secreted TNFα) was 10 nM, the GM-CSF secretion ([5]; approximately 0.001 μM for 96 hours) was 3000 pg/mL and the GM-CSF secretion ([5]; approximately 0.01 μM for 96 hours) was 10,000 pg/mL. The GM-CSF secretion plateau ([5]; concentrations greater than 0.1 μM, 96 hours) was “under 15,000 pg/mL”.
